The results in this text go back to patent US20140194473A1, “IMIDAZOLE FUNGICIDES” (E I Du Pont De Nemours And Company, priority 2013, published 2014).

Each structure is given as a SMILES string.

What all share (type): in vivo
The subject of one experiment is Septoria tritici. Nature of the experiment: Test D: wheat leaf blotch, preventive spray on wheat seedlings. Particulars: 40 ppm test suspension sprayed to run-off on wheat seedlings, inoculated the following day; 100 = 100% disease control, 0 = no control; triplicate, averaged. The protocol: (§1) General protocol for preparing test suspensions for Tests A-G: the test compounds were first dissolved in acetone in an amount equal to 3% of the final volume and then suspended at the desired concentration (in ppm) in acetone and purified water (50/50 mix by volume) containing 250 ppm of the surfactant Trem® 014 (polyhydric alcohol esters). The resulting test suspensions were then used in Tests A-G. Each test was conducted in triplicate, and the results were averaged. Spraying a 40 ppm test suspension to the point of run-off on the test plants was the equivalent of a rate of about 160 g/ha. Unless otherwise indicated, the rating values indicate a 40 ppm test suspension was used.
The test suspension was sprayed to the point of run-off on wheat seedlings. The following day the seedlings were inoculated with a spore suspension of Septoria tritici (the causal agent of wheat leaf blotch) and incubated in saturated atmosphere at 24° C. for 48 h. and then the seedlings were moved to a growth chamber at 20° C. for 19 additional days, after which time visual disease ratings were made.
(§2) Results for Tests A-G are given in Table A. In the Table, a rating of 100 indicates 100% disease control and a rating of 0 indicates no disease control (relative to the controls). A hyphen (-) indicates no test results.

The test system of experiment [1] is Puccinia recondite f. sp. tritici. The experiment is described as follows: Test F: wheat leaf rust, preventive spray on wheat seedlings. Particulars: 40 ppm test suspension sprayed to run-off on wheat seedlings, inoculated the following day; 100 = 100% disease control, 0 = no control; triplicate, averaged. The protocol:
as §1
The test suspension was sprayed to the point of run-off on wheat seedlings. The following day the seedlings were inoculated with a spore suspension of Puccinia recondite f. sp. tritici (the causal agent of wheat leaf rust) and incubated in a saturated atmosphere at 20° C. for 24 h, and then moved to a growth chamber at 20° C. for 6 days, after which time visual disease ratings were made.
as §2

The subject of experiment [2] is Blumeria graminis f. sp. tritici. Nature of the experiment: Test G: wheat powdery mildew, preventive spray on wheat seedlings. Particulars: 40 ppm test suspension sprayed to run-off on wheat seedlings, inoculated with spore dust the following day; 100 = 100% disease control, 0 = no control; triplicate, averaged. The protocol:
as §1
The test suspension was sprayed to the point of run-off on wheat seedlings. The following day the seedlings were inoculated with a spore dust of Blumeria graminis f. sp. tritici (also known as Erysiphe graminis f. sp. tritici, the causal agent of wheat powdery mildew) and incubated in a growth chamber at 20° C. for 8 days, after which time visual disease ratings were made.
as §2

The next experiment concerns Septoria nodorum. Nature of the experiment: Test C: Septoria glume blotch, preventive spray on wheat seedlings. The settings on record: 40 ppm test suspension sprayed to run-off on wheat seedlings, inoculated the following day; 100 = 100% disease control, 0 = no control; triplicate, averaged. The protocol:
as §1
The test suspension was sprayed to the point of run-off on wheat seedlings. The following day the seedlings were inoculated with a spore suspension of Septoria nodorum (the causal agent of Septoria glume blotch) and incubated in a saturated atmosphere at 24° C. for 48 h, and then moved to a growth chamber at 20° C. for 9 days, after which time visual disease ratings were made.
as §2

The test system of the next experiment is Alternaria solani. Nature of the experiment: Test B: tomato early blight, preventive spray on tomato seedlings. Particulars: 40 ppm test suspension sprayed to run-off on tomato seedlings, inoculated the following day; 100 = 100% disease control, 0 = no control; triplicate, averaged. The protocol:
as §1
The test suspension was sprayed to the point of run-off on tomato seedlings. The following day the seedlings were inoculated with a spore suspension of Alternaria solani (the causal agent of tomato early blight) and incubated in a saturated atmosphere at 27° C. for 48 h, and then moved to a growth chamber at 20° C. for 5 days, after which time visual disease ratings were made.
as §2

The test system of another experiment is Botrytis cinerea. Nature of the experiment: Test A: tomato Botrytis, preventive spray on tomato seedlings. Particulars: 40 ppm test suspension sprayed to run-off on tomato seedlings, inoculated the following day; 100 = 100% disease control, 0 = no control; triplicate, averaged. The protocol:
as §1
The test suspension was sprayed to the point of run-off on tomato seedlings. The following day the seedlings were inoculated with a spore suspension of Botrytis cinerea (the causal agent of tomato Botrytis) and incubated in saturated atmosphere at 20° C. for 48 h, and then moved to a growth chamber at 24° C. for 3 additional days, after which time visual disease ratings were made.
as §2

For experiment [3], the system named is Puccinia recondite f. sp. tritici. The experiment is described as follows: Test E: wheat leaf rust, spray after inoculation of wheat seedlings. Particulars: 40 ppm test suspension sprayed on wheat seedlings after inoculation (24 h incubation, then 2 days in growth chamber); 100 = 100% disease control, 0 = no control; triplicate, averaged. The protocol: as §1
Wheat seedlings were inoculated with a spore suspension of Puccinia recondite f. sp. tritici (the causal agent of wheat leaf rust) and incubated in a saturated atmosphere at 20° C. for 24 h, and then moved to a growth chamber at 20° C. for 2 days. After 2 days, the test suspension was sprayed to the point of run-off on the wheat seedlings, and then the seedlings were moved back to the growth chamber at 20° C. for 4 days. Upon removal, visual disease ratings were made.
as §2

Turning to `Cc1ncn(Nc2ccc(F)cc2Cl)c1-c1ccc(F)cc1F` [Compound 1, N-(2-chloro-4-fluorophenyl)-5-(2,4-difluorophenyl)-4-methyl-1H-imidazol-1-amine], the “Test D rating (disease control)” value in the experiment on Septoria tritici was 92%. Also, the “Test F rating (disease control)” value in experiment [1] amounted to 95%. Moreover, in experiment [2], the “Test G rating (disease control)” value stood at 91%. Besides, in the experiment with Septoria nodorum, the “Test C rating (disease control)” value amounted to 0%. Further, in the experiment with Alternaria solani, the “Test B rating (disease control)” value was found to be 70%. The “Test A rating (disease control)” value in the experiment with Botrytis cinerea was 100%.

For the molecule `Cc1nc(Br)n(Nc2ccc(F)cc2Cl)c1-c1ccc(F)cc1F` [Compound 2, 2-bromo-N-(2-chloro-4-fluorophenyl)-5-(2,4-difluorophenyl)-4-methyl-1H-imidazol-1-amine], the “Test D rating (disease control)” value in the experiment with Septoria tritici was 100%. In addition, the “Test F rating (disease control)” value in experiment [1] came to 99%. Further, the “Test G rating (disease control)” value in experiment [2] stood at 100%. Besides, the “Test E rating (disease control)” value in experiment [3] is given as 30%. For the same molecule, the “Test C rating (disease control)” value with Septoria nodorum is reported as 60%. For the same molecule, the “Test B rating (disease control)” value in the experiment on Alternaria solani is 0%. For the same molecule, the “Test A rating (disease control)” value with Botrytis cinerea is listed as 99%.

As for `Cc1ncn(Nc2ccc(Cl)cc2Cl)c1-c1ccc(F)cc1` [Compound 3], in the experiment on Septoria tritici, the “Test D rating (disease control)” value was 99%. Besides, the “Test F rating (disease control)” value in experiment [1] turned out to be 41%. In addition, the “Test G rating (disease control)” value in experiment [2] was 0%. Also, the “Test E rating (disease control)” value in experiment [3] is 0%. Moreover, the “Test C rating (disease control)” value in the experiment with Septoria nodorum is given as 0%. For the same molecule, the “Test B rating (disease control)” value with Alternaria solani stood at 0%.

As for `Cc1nc(Br)n(Nc2ccc(Cl)cc2Cl)c1-c1ccc(Cl)cc1` [Compound 5], the “Test D rating (disease control)” value in the experiment on Septoria tritici worked out at 99%. Besides, the “Test F rating (disease control)” value in experiment [1] is 9%. Moreover, in experiment [2], the “Test G rating (disease control)” value came to 0%. For the same molecule, in experiment [3], the “Test E rating (disease control)” value amounted to 0%. For the same molecule, the “Test C rating (disease control)” value in the experiment on Septoria nodorum was 0%. Moreover, the “Test B rating (disease control)” value with Alternaria solani was determined as 0%.

In the case of `Cc1nc(Br)n(Nc2ccc(Cl)cc2Cl)c1-c1ccc(F)cc1` [Compound 6], in the experiment with Septoria tritici, the “Test D rating (disease control)” value is 93%. For the same molecule, the “Test F rating (disease control)” value in experiment [1] was 55%. Besides, the “Test G rating (disease control)” value in experiment [2] is recorded as 0%. For the same molecule, the “Test C rating (disease control)” value with Septoria nodorum stood at 0%. The “Test B rating (disease control)” value in the experiment on Alternaria solani is 0%. Also, in the experiment with Botrytis cinerea, the “Test A rating (disease control)” value is 16%.

As to `Cc1ncn(Nc2ccc(Cl)cc2Cl)c1-c1ccc(F)cc1F` [Compound 7, 5-(2,4-difluorophenyl)-N-(2,4-dichlorophenyl)-4-methyl-1H-imidazol-1-amine], in the experiment with Septoria tritici, the “Test D rating (disease control)” value turned out to be 100%. For the same molecule, the “Test F rating (disease control)” value in experiment [1] is given as 97%. In experiment [2], the “Test G rating (disease control)” value was determined as 91%. Besides, the “Test E rating (disease control)” value in experiment [3] came out at 0%. The “Test C rating (disease control)” value in the experiment with Septoria nodorum turned out to be 0%. In the experiment with Alternaria solani, the “Test B rating (disease control)” value is listed as 0%. Moreover, the “Test A rating (disease control)” value with Botrytis cinerea is given as 100%.

As for `Cc1nc(Br)n(Nc2c(Cl)cc(Cl)cc2Br)c1-c1ccc(F)cc1F` [Compound 8, N-(2-bromo-4,6-dichlorophenyl)-4-methyl-2-bromo-5-(2,4-difluorophenyl)-1H-imidazol-1-amine], in the experiment with Septoria tritici, the “Test D rating (disease control)” value is 100%. Moreover, the “Test F rating (disease control)” value in experiment [1] turned out to be 100%. Further, the “Test G rating (disease control)” value in experiment [2] was found to be 98%. In addition, the “Test E rating (disease control)” value in experiment [3] turned out to be 19%. In the experiment with Septoria nodorum, the “Test C rating (disease control)” value is listed as 0%. Besides, the “Test B rating (disease control)” value in the experiment on Alternaria solani turned out to be 9%. Moreover, the “Test A rating (disease control)” value with Botrytis cinerea is on record as 99%.

As to `Cc1ncn(Nc2ccc(F)cc2F)c1-c1ccc(F)cc1F` [Compound 9], in the experiment on Septoria tritici, the “Test D rating (disease control)” value stood at 79%. For the same molecule, in experiment [1], the “Test F rating (disease control)” value turned out to be 14%. The “Test G rating (disease control)” value in experiment [2] is given as 0%. In experiment [3], the “Test E rating (disease control)” value is 36%. For the same molecule, in the experiment with Septoria nodorum, the “Test C rating (disease control)” value is recorded as 0%. The “Test B rating (disease control)” value in the experiment with Alternaria solani is 0%. Moreover, the “Test A rating (disease control)” value in the experiment with Botrytis cinerea amounted to 87%.

For the molecule `Cc1nc(Br)n(Nc2ccc(F)cc2F)c1-c1ccc(F)cc1F` [Compound 10, 2-bromo-N,5-bis(2,4-difluorophenyl)-4-methyl-1H-imidazol-1-amine], the “Test D rating (disease control)” value with Septoria tritici worked out at 100%. Moreover, in experiment [1], the “Test F rating (disease control)” value was determined as 100%. Also, the “Test G rating (disease control)” value in experiment [2] is reported as 96%. Further, the “Test E rating (disease control)” value in experiment [3] stood at 7%. The “Test C rating (disease control)” value with Septoria nodorum is recorded as 0%. In the experiment with Alternaria solani, the “Test B rating (disease control)” value worked out at 40%. In the experiment with Botrytis cinerea, the “Test A rating (disease control)” value was found to be 99%.

As for `Fc1cc(F)c(Nn2c(Cl)nc(Cl)c2-c2ccc(Cl)cc2Cl)c(Cl)c1` [Compound 11, N-(2-chloro-4,6-difluorophenyl)-2,4-dichloro-5-(2,4-dichlorophenyl)-1H-imidazol-1-amine], in the experiment with Septoria tritici, the “Test D rating (disease control)” value is given as 0%. Moreover, the “Test F rating (disease control)” value in experiment [1] is given as 0%. Also, the “Test G rating (disease control)” value in experiment [2] is given as 52%. In addition, in experiment [3], the “Test E rating (disease control)” value was 0%. Also, in the experiment with Septoria nodorum, the “Test C rating (disease control)” value is 0%. The “Test B rating (disease control)” value in the experiment with Alternaria solani was 0%. Moreover, the “Test A rating (disease control)” value in the experiment with Botrytis cinerea stood at 0%.

Consider `Fc1ccc(-c2c(C(Cl)Cl)nc(Cl)n2Nc2ccc(F)cc2Cl)c(F)c1` [Compound 12], for which the “Test D rating (disease control)” value in the experiment with Septoria tritici is 89%. Also, the “Test F rating (disease control)” value in experiment [1] was determined as 86%. In addition, the “Test G rating (disease control)” value in experiment [2] is 73%. Further, the “Test E rating (disease control)” value in experiment [3] is 0%. The “Test C rating (disease control)” value in the experiment with Septoria nodorum is reported as 0%. In the experiment with Alternaria solani, the “Test B rating (disease control)” value is on record as 0%. Moreover, the “Test A rating (disease control)” value with Botrytis cinerea is 0%.

In the case of `Fc1ccc(-c2c(CCl)nc(Cl)n2Nc2ccc(F)cc2Cl)c(F)c1` [Compound 13], the “Test D rating (disease control)” value in the experiment with Septoria tritici came to 97%. Also, in experiment [1], the “Test F rating (disease control)” value amounted to 95%. Further, the “Test G rating (disease control)” value in experiment [2] was 98%. Also, in experiment [3], the “Test E rating (disease control)” value came to 0%. In the experiment on Septoria nodorum, the “Test C rating (disease control)” value was 0%. The “Test B rating (disease control)” value with Alternaria solani is given as 0%. Moreover, the “Test A rating (disease control)” value in the experiment on Botrytis cinerea was determined as 66%.

For the molecule `Fc1ccc(Nn2c(Br)nc(Br)c2-c2ccc(Cl)cc2Cl)c(F)c1` [Compound 14], the “Test D rating (disease control)” value in the experiment with Septoria tritici is reported as 0%. For the same molecule, the “Test F rating (disease control)” value in experiment [1] was determined as 0%. Also, the “Test G rating (disease control)” value in experiment [2] stood at 0%. Moreover, the “Test E rating (disease control)” value in experiment [3] amounted to 0%. Moreover, the “Test C rating (disease control)” value in the experiment with Septoria nodorum came out at 0%. For the same molecule, the “Test B rating (disease control)” value in the experiment with Alternaria solani came out at 0%. Besides, the “Test A rating (disease control)” value in the experiment on Botrytis cinerea was 0%.
